In patent US4985412A, “Phosphoric acid ester, process for preparing the same, and detergent composition containing the same” (Kao Corporation, priority 1987, dated 1991):

Tests used:
[1] = Foaming capability (Reverse Stirring Method); assay type: physicochemical; settings: for Foaming capability (Foam volume): reverse stirring, 40 °C, 1,000 rpm, 30 sec (reversed at every 5 sec), measured after 10 sec
Experimental: * The conditions of the reverse stirring
Rotation speed: 1,000 rpm
Stirring time: 30 sec. (reversed at every 5 sec.)
Measurement: performed after the test sample was left for 10 sec.

Krafft point = assay type: physicochemical
[2] = comparison with sodium dodecyl phosphate, in words

Foaming capability (Foam volume) [1]	Krafft point (Krafft point)	Foaming capability compared with sodium dodecyl phosphate [1, 2]	Krafft point compared with sodium dodecyl phosphate (Krafft point; [2])	SMILES
260 mL	32 °C	–	–	CCCCCCCCCCCCOP(=O)(O)O [1-sodium dodecyl phosphate]
250 mL	< 0 °C	almost the same foaming capability	extremely lower Krafft point	CCCCCCCCCCCCOP(=O)(O)OCC(O)CN(C)CC(=O)O (centres unmarked) [Example 1, sodium dodecyl 2-hydroxy-3-N-carboxymethyl-N-methylammoniopropyl phosphate]

SMILES	Foaming capability (Foam volume) [1]	Krafft point (Krafft point)	Foaming capability compared with sodium dodecyl phosphate [1, 2]	Krafft point compared with sodium dodecyl phosphate (Krafft point; [2])
CCCCCCCCCCCCOP(=O)([O-])OCC(O)CO.[Na+] (centres unmarked) [sodium dodecyl 2,3-dihydroxypropyl phosphate]	240 mL	< 0 °C	–	–
